Here are results for 10 compounds from US9221809B2 (MERCK SHARP & DOHME CORP., priority 2011, dated 2015).

Where a name gives a salt, the structure may show the parent alone.

One assay deals with IRAK4 (Homo sapiens (Human), UniProt Q9NWZ3). Kind of assay: IRAK4 kinase activity, IMAP fluorescence polarization assay. In kind it is biochemical. The settings on record: 100 μM ATP, 0.5 nM GST tagged IRAK4; read-out: IRAK4 IC50. The method, then: The kinase activity of IRAK4 is determined by its ability to catalyze the phosphorylation of a fluorescent polypeptide substrate. The extent of phosphorylation is measured using IMAP technology (Molecular Devices) where the phosphorylated fluorescent substrate binds to the large M(III)-based nanoparticles which reduces the rotational speed of the substrate and thus increases its fluorescent polarization (FP).
Chain of IRAK4 (Q9NWZ3 whole entry): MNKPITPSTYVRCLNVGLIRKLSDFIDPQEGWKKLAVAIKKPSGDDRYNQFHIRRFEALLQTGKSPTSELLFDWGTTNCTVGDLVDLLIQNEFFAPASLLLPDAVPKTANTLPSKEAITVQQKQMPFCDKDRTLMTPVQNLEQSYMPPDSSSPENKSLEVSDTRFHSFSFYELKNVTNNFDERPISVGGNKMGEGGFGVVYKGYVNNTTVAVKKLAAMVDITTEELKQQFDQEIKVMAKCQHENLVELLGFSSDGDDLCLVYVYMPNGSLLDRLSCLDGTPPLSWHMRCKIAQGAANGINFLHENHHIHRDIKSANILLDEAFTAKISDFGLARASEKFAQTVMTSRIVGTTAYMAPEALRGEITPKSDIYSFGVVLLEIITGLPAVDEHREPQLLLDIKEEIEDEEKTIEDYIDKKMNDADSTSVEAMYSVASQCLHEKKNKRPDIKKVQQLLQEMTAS
Assay Procedure: A 20 μl reaction mixture contains 10 mM TriHCl, pH 7.2, 0.5 nM GST tagged IRAK4 (SignalChem), 100 nM fluorescent peptide substrate (RP7030, Molecular Devices), 100 μM ATP, 1 mM DTT, 1 mM MgCl2, and 0.01% Tween 20. The reaction is initiated by the addition of ATP. After incubation for 30 minutes at 25° C., 60 μl of Progressive IMAP Reagent (Molecular Devices) is added to stop the reaction. Change in RP7030's FP is determined by a FP reader (Analyst HT, LJL BioSystems)
(In fluorescence polarisation assays a small probe gives low polarisation when free and higher when bound to something large.)
A word on the IC50: it is the point on the concentration scale where inhibition reaches its midpoint. On to `O=c1[nH]c(NC2CCC2)nc(N[C@@H]2C[C@H](CO)[C@@H](O)[C@H]2O)c1-c1nc2cnccc2s1` [Example 55, 2-(Cyclobutylamino)-6-((1R,2S,3R,4R)-2,3-dihydroxy-4-(hydroxymethyl)cyclopentylamino)-5-(thiazolo[4,5-c]pyridin-2-yl)pyrimidin-4(3H)-one.HCl], for which the IC50 is 2.5 nM.
Same read-out and setting: for `Cc1nccc2sc(-c3c(N[C@@H]4C[C@H](CO)[C@@H](O)[C@H]4O)nc(N4CCOCC4)[nH]c3=O)nc12` [Example 56, 6-(((1R,2S,3R,4R)-2,3-Dihydroxy-4-(hydroxymethyl)cyclopentyl)amino)-5-(4-methylthiazolo[4,5-c]pyridin-2-yl)-2-morpholinopyrimidin-4(3H)-one.HCl] the value was 8.4 nM.
Same read-out and setting: under `Cc1cc2sc(-c3c(N[C@@H]4C[C@H](CO)[C@@H](O)[C@H]4O)nc(N4CCOCC4)[nH]c3=O)nc2c(C)n1` [Example 57, 6-(((1R,2S,3R,4R)-2,3-Dihydroxy-4-(hydroxymethyl)cyclopentyl)amino)-5-(4,6-dimethylthiazolo[4,5-c]pyridin-2-yl)-2-morpholinopyrimidin-4(3H)-one.HCl] stands 923 nM; under `O=c1[nH]c(N2CCOCC2)nc(N[C@@H]2C[C@H](CO)[C@@H](O)[C@H]2O)c1-c1nc(-c2ccc(F)cc2)cs1` [Example 58, 6-(((1R,2S,3R,4R)-2,3-Dihydroxy-4-(hydroxymethyl)cyclopentyl)amino)-5-(4-(4-fluorophenyl)thiazol-2-yl)-2-morpholinopyrimidin-4(3H)-one.HCl], 5.6 nM.
The same measure, in the same setting: for `O=c1[nH]c(N2CCCCC2)nc(N[C@@H]2C[C@H](CO)[C@@H](O)[C@H]2O)c1-c1nc(-c2ccc(F)cc2)cs1` [Example 59, 6-(((1R,2S,3R,4R)-2,3-Dihydroxy-4-(hydroxymethyl)cyclopentyl)amino)-5-(4-(4-fluorophenyl)thiazol-2-yl)-2-(piperidin-1-yl)pyrimidin-4(3H)-one HCl] the value was 22.5 nM.
With `CCc1nc(N[C@@H]2C[C@H](CO)[C@@H](O)[C@H]2O)c(-c2nc3ccccc3s2)c(=O)[nH]1` [Example 61, 5-(Benzo[d]thiazol-2-yl)-6-((1R,2S,3R,4R)-2,3-dihydroxy-4-(hydroxymethyl)cyclopentylamino)-2-ethylpyrimidin-4(3H)-one.HCl], the IC50 worked out at 1160 nM.

The assay is the same for the next values; noted with them: unit inferred; 100 μM ATP; read-out: IRAK4 IC50.
As for `O=c1[nH]c(N2CCN(c3cccnc3)CC2)nc(N[C@@H]2C[C@H](CO)[C@@H](O)[C@H]2O)c1-c1nc2ccccc2s1` [Example 63, 5-(benzo[d]thiazol-2-yl)-6-((1R,2S,3R,4R)-2,3-dihydroxy-4-(hydroxymethyl)cyclopentylamino)-2-(4-(pyridin-3-yl)piperazin-1-yl)pyrimidin-4(3H)-one], the IC50 came to 3.7 nM.
Same read-out and setting: under `O=c1[nH]c(N2CCC(c3cncnc3)CC2)nc(N[C@@H]2C[C@H](CO)[C@@H](O)[C@H]2O)c1-c1nc2ccccc2s1` [Example 64, 5-(benzo[d]thiazol-2-yl)-6-((1R,2S,3R,4R)-2,3-dihydroxy-4-(hydroxymethyl)cyclopentylamino)-2-(4-(pyrimidin-5-yl)piperidin-1-yl)pyrimidin-4(3H)-one] stands 6.2 nM.
Still for that read-out and setting: for `O=c1[nH]c(N2CCc3ccncc3C2)nc(N[C@@H]2C[C@H](CO)[C@@H](O)[C@H]2O)c1-c1nc2ccccc2s1` [Example 65, 5-(benzo[d]thiazol-2-yl)-2-(3,4-dihydro-2,7-naphthyridin-2(1H)-yl)-6-((1R,2S,3R,4R)-2,3-dihydroxy-4-(hydroxymethyl)cyclopentylamino)pyrimidin-4(3H)-one] the value was 7.2 nM; for `CN1CCC2(CCN(c3nc(N[C@@H]4C[C@H](CO)[C@@H](O)[C@H]4O)c(-c4nc5ccccc5s4)c(=O)[nH]3)CC2)C1=O` [Example 66, 8-(5-(benzo[d]thiazol-2-yl)-4-((1R,2S,3R,4R)-2,3-dihydroxy-4-(hydroxymethyl)cyclopentylamino)-6-oxo-1,6-dihydropyrimidin-2-yl)-2-methyl-2,8-diazaspiro[4.5]decan-1-one], 8.8 nM.
